From patent US10959432B2, “Microbiocidal oxadiazole derivatives” (Syngenta Participations AG, priority 2016, dated 2021)
Read-outs that look alike come from different tables or passages of the source.

Experiments:
[1] = tested on: Glomerella laqenarium (Colletotrichum lagenarium); experiment: Fungicidal activity against Glomerella lagenarium (Colletotrichum lagenarium) liquid culture / cucumber / preventative (anthracnose); type: cell-based; details: Colletotrichum orbiculare, read-out: disease control compared to untreated control (inhibition of growth measured photometrically)
Description: Mycelia fragments or conidia suspensions of a fungus prepared either freshly from liquid cultures of the fungus or from cryogenic storage, are directly mixed into nutrient broth. DMSO solutions of the test compound (max. 10 mg/ml) are diluted with 0.025% Tween20 by a factor of 50 and 10 μl of this solution is pipetted into a microtiter plate (96-well format). The nutrient broth containing the fungal spores/mycelia fragments is then added to give an end concentration of the tested compound. The test plates are incubated in the dark at 24° C. and 96% relative humidity. The inhibition of fungal growth is determined photometrically after 2 to 7 days, depending on the pathosystem, and percent antifungal activity relative to the untreated check is calculated.
Example 4: Fungicidal Activity Against Glomerella laqenarium (Colletotrichum lagenarium) Liquid Culture/Cucumber/Preventative (Anthracnose)
Conidia of the fungus from cryogenic storage are directly mixed into nutrient broth (PDB—potato dextrose broth). After placing a (DMSO) solution of test compound into a microtiter plate (96-well format), the nutrient broth containing the fungal spores is added. The test plates are incubated at 24° C. and the inhibition of growth is measured photometrically 3 to 4 days after application.
The following compounds at 20 ppm in the applied formulation give at least 80% disease control in this test when compared to untreated control under the same conditions, which show extensive disease development.

Phakopsora pachyrhizi = experiment: Fungicidal activity against Phakopsora pachyrhizi / soybean / leaf disc preventative (Asian soybean rust); type: in vivo; details: foliar, read-out: disease control compared to untreated control leaf disks
Description: (§1) Leaf disks or leaf segments of various plant species are cut from plants grown in a greenhouse. The cut leaf disks or segments are placed in multiwell plates (24-well format) onto water agar. The leaf disks are sprayed with a test solution before (preventative) or after (curative) inoculation. Compounds to be tested are prepared as DMSO solutions (max. 10 mg/ml) which are diluted to the appropriate concentration with 0.025% Tween20 just before spraying. The inoculated leaf disks or segments are incubated under defined conditions (temperature, relative humidity, light, etc.) according to the respective test system. A single evaluation of disease level is carried out 3 to 14 days after inoculation, depending on the pathosystem. Percent disease control relative to the untreated check leaf disks or segments is then calculated. General Examples of Liquid Culture Tests in Well Plates:
Example 3: Fungicidal Activity Against Phakopsora pachyrhizi/Soybean/Leaf Disc Preventative (Asian Soybean Rust)
Soybean leaf disks are placed on water agar in multiwell plates (24-well format) and sprayed with the formulated test compound diluted in water. One day after application leaf discs are inoculated by spraying a spore suspension on the lower leaf surface. After an incubation period in a climate cabinet of 24-36 hours in darkness at 20° C. and 75% rh leaf disc are kept at 20° C. with 12 h light/day and 75% rh. The activity of a compound is assessed as percent disease control compared to untreated when an appropriate level of disease damage appears in untreated check leaf disks (12 to 14 days after application).
(§2) The following compounds at 200 ppm in the applied formulation give at least 80% disease control in this test when compared to untreated control leaf disks under the same conditions, which show extensive disease development.

[2] = tested on: Puccinia recondita f. sp. tritici; experiment: Fungicidal activity against Puccinia recondita f. sp. tritici / wheat / leaf disc preventative (brown rust); type: in vivo; details: foliar, 200 ppm in the applied formulation, wheat leaf segments cv. Kanzler, preventative (inoculated 1 day after application), assessed 7 to 9 days after application, read-out: disease control compared to untreated control leaf disks
Description: as §1
Example 1: Fungicidal Activity Against Puccinia recondita f. sp. tritici/Wheat/Leaf Disc Preventative (Brown Rust)
Wheat leaf segments cv. Kanzler were placed on agar in multiwell plates (24-well format) and sprayed with the formulated test compound diluted in water. The leaf disks were inoculated with a spore suspension of the fungus 1 day after application. The inoculated leaf segments were incubated at 19C and 75% relative humidity (rh) under a light regime of 12 hours light/12 hours darkness in a climate cabinet and the activity of a compound was assessed as percent disease control compared to untreated when an appropriate level of disease damage appears in untreated check leaf segments (7 to 9 days after application).
as §2

[3] = tested on: Puccinia recondita f. sp. tritici; experiment: Fungicidal activity against Puccinia recondita f. sp. tritici / wheat / leaf disc curative (brown rust); type: in vivo; details: foliar, 200 ppm in the applied formulation, wheat leaf segments cv. Kanzler, curative (applied 1 day after inoculation), assessed 6 to 8 days after application, read-out: disease control compared to untreated control leaf disks
Description: as §1
Example 2: Fungicidal Activity Against Puccinia recondita f. sp. Tritici/Wheat/Leaf Disc Curative (Brown Rust)
Wheat leaf segments cv. Kanzler are placed on agar in multiwell plates (24-well format). The leaf segments are then inoculated with a spore suspension of the fungus. Plates were stored in darkness at 19° C. and 75% relative humidity. The formulated test compound diluted in water was applied 1 day after inoculation. The leaf segments were incubated at 19° C. and 75% relative humidity under a light regime of 12 hours light/12 hours darkness in a climate cabinet and the activity of a compound was assessed as percent disease control compared to untreated when an appropriate level of disease damage appears in untreated check leaf segments (6 to 8 days after application).
as §2

[4] = 20 ppm in the applied formulation, liquid culture in PDB, 24° C., 3 to 4 days after application
[5] = 200 ppm in the applied formulation, soybean leaf disks, preventative (inoculated one day after application), assessed 12 to 14 days after application

Structure (SMILES)	inhibition at 20 ppm [1, 4] [%]	pest or weed control at 200 ppm (Phakopsora pachyrhizi; [5]) [%]	also measured
CCOC(=O)CC(C)NC(=O)c1ccc(-c2noc(C(F)(F)F)n2)cc1 (stereo not shown) [Compound 3a.26, ethyl 3-[[4-[5-(trifluoromethyl)-1,2,4-oxadiazol-3-yl]benzoyl]amino]butanoate]	≥ 80	≥ 80	pest or weed control at 200 ppm [2]: ≥ 80%
O=C(NCCCCO)c1ccc(-c2noc(C(F)(F)F)n2)cc1F [Compound 3b.26, 2-fluoro-N-(4-hydroxybutyl)-4-[5-(trifluoromethyl)-1,2,4-oxadiazol-3-yl]benzamide]	≥ 80	≥ 80	pest or weed control at 200 ppm [2]: ≥ 80%
CN(C(=O)c1ccc(-c2noc(C(F)(F)F)n2)cc1)C1CCN(C(=O)OC(C)(C)C)C1 (stereo not shown) [Compound 1a.1, tert-butyl 3-[methyl-[4-[5-(trifluoromethyl)-1,2,4-oxadiazol-3-yl]benzoyl]amino]pyrrolidine-1-carboxylate]	≥ 80	≥ 80	pest or weed control at 200 ppm [2]: ≥ 80%
CCCCCCNC(=O)c1ccc(-c2noc(C(F)(F)F)n2)cc1 [Compound 3a.29, N-hexyl-4-[5-(trifluoromethyl)-1,2,4-oxadiazol-3-yl]benzamide]			inhibition at 20 ppm [1]: ≥ 80%; pest or weed control at 200 ppm (Phakopsora pachyrhizi): ≥ 80%
CC(C#N)(NC(=O)c1ccc(-c2noc(C(F)(F)F)n2)cc1F)C1CC1 (stereo not shown) [Compound 2b.9, N-(1-cyano-1-cyclopropyl-ethyl)-2-fluoro-4-[5-(trifluoromethyl)-1,2,4-oxadiazol-3-yl]benzamide]		≥ 80	pest or weed control at 200 ppm [3]: ≥ 80%; pest or weed control at 200 ppm [2]: ≥ 80%
CN(CCCCO)C(=O)c1ccc(-c2noc(C(F)(F)F)n2)cc1 [Compound 3a.19, N-(4-hydroxybutyl)-N-methyl-4-[5-(trifluoromethyl)-1,2,4-oxadiazol-3-yl]benzamide]		≥ 80	
COCCN(C(=O)c1ccc(-c2noc(C(F)(F)F)n2)cc1F)C(C)C [Compound 3b.13, 2-fluoro-N-isopropyl-N-(2-methoxyethyl)-4-[5-(trifluoromethyl)-1,2,4-oxadiazol-3-yl]benzamide]	≥ 80	≥ 80	
CCCCN(CCO)C(=O)c1ccc(-c2noc(C(F)(F)F)n2)cc1 [Compound 3a.25, N-butyl-N-(2-hydroxyethyl)-4-[5-(trifluoromethyl)-1,2,4-oxadiazol-3-yl]benzamide]	≥ 80	≥ 80	
CC(CCO)NC(=O)c1ccc(-c2noc(C(F)(F)F)n2)cc1 (stereo not shown) [Compound 3a.15, N-(3-hydroxy-1-methyl-propyl)-4-[5-(trifluoromethyl)-1,2,4-oxadiazol-3-yl]benzamide]		≥ 80	pest or weed control at 200 ppm [3]: ≥ 80%
Cc1cc(C#N)c(NC(=O)c2ccc(-c3noc(C(F)(F)F)n3)cc2)s1 [Compound 5a.1, N-(3-cyano-5-methyl-2-thienyl)-4-[5-(trifluoromethyl)-1,2,4-oxadiazol-3-yl]benzamide]		≥ 80	
COC1=NS(C)=NC(N(C)C(=O)c2ccc(-c3noc(C(F)(F)F)n3)cc2F)=N1 (stereo not shown) [Compound 5b.8, 2-fluoro-N-(5-methoxy-1-methyl-1-thia-2,4,6-triazacyclohexa-2,4,6-trien-3-yl)-N-methyl-4-[5-(trifluoromethyl)-1,2,4-oxadiazol-3-yl]benzamide]		≥ 80	
CC(CCO)NC(=O)c1ccc(-c2noc(C(F)(F)F)n2)cc1F (stereo not shown) [Compound 3b.17, 2-fluoro-N-(3-hydroxy-1-methyl-propyl)-4-[5-(trifluoromethyl)-1,2,4-oxadiazol-3-yl]benzamide]		≥ 80	pest or weed control at 200 ppm [3]: ≥ 80%
CCC(CC)CNC(=O)c1ccc(-c2noc(C(F)(F)F)n2)cc1 [Compound 3a.39, N-(2-ethylbutyl)-4-[5-(trifluoromethyl)-1,2,4-oxadiazol-3-yl]benzamide]	≥ 80	≥ 80	
CC(C)(CCO)NC(=O)c1ccc(-c2noc(C(F)(F)F)n2)cc1 [Compound 3a.42, N-(3-hydroxy-1,1-dimethyl-propyl)-4-[5-(trifluoromethyl)-1,2,4-oxadiazol-3-yl]benzamide]		≥ 80	
CCC(CC)CNC(=O)c1ccc(-c2noc(C(F)(F)F)n2)cc1F [Compound 3b.42, N-(2-ethylbutyl)-2-fluoro-4-[5-(trifluoromethyl)-1,2,4-oxadiazol-3-yl]benzamide]		≥ 80	
CCCN(CC1CC1)C(=O)c1ccc(-c2noc(C(F)(F)F)n2)cc1 [Compound 2a.1, N-(cyclopropylmethyl)-N-propyl-4-[5-(trifluoromethyl)-1,2,4-oxadiazol-3-yl]benzamide]	≥ 80	≥ 80	
O=C(NCCCCCO)c1ccc(-c2noc(C(F)(F)F)n2)cc1 [Compound 3a.21, N-(5-hydroxypentyl)-4-[5-(trifluoromethyl)-1,2,4-oxadiazol-3-yl]benzamide]		≥ 80	pest or weed control at 200 ppm [3]: ≥ 80%
CC(C)CN(CC(C)C)C(=O)c1ccc(-c2noc(C(F)(F)F)n2)cc1 [Compound 3a.23, N,N-diisobutyl-4-[5-(trifluoromethyl)-1,2,4-oxadiazol-3-yl]benzamide]	≥ 80	≥ 80	
O=C(Nc1cn[nH]c1)c1ccc(-c2noc(C(F)(F)F)n2)cc1 [Compound 5a.3, N-(1H-pyrazol-4-yl)-4-[5-(trifluoromethyl)-1,2,4-oxadiazol-3-yl]benzamide]		≥ 80	
CN(CC(C)(C)CO)C(=O)c1ccc(-c2noc(C(F)(F)F)n2)cc1 [Compound 3a.8, N-(3-hydroxy-2,2-dimethyl-propyl)-N-methyl-4-[5-(trifluoromethyl)-1,2,4-oxadiazol-3-yl]benzamide]	≥ 80	≥ 80	
CN(CCCO)C(=O)c1ccc(-c2noc(C(F)(F)F)n2)cc1F [Compound 3b.9, 2-fluoro-N-(3-hydroxypropyl)-N-methyl-4-[5-(trifluoromethyl)-1,2,4-oxadiazol-3-yl]benzamide]		≥ 80	pest or weed control at 200 ppm [3]: ≥ 80%
CN(CCCO)C(=O)c1ccc(-c2noc(C(F)(F)F)n2)cc1 [Compound 3a.6, N-(3-hydroxypropyl)-N-methyl-4-[5-(trifluoromethyl)-1,2,4-oxadiazol-3-yl]benzamide]		≥ 80	pest or weed control at 200 ppm [3]: ≥ 80%
CN(CCO)C(=O)c1ccc(-c2noc(C(F)(F)F)n2)cc1F [Compound 3b.25, 2-fluoro-N-(2-hydroxyethyl)-N-methyl-4-[5-(trifluoromethyl)-1,2,4-oxadiazol-3-yl]benzamide]		≥ 80	
